Legend:
Phakopsora pachyrhizi = assay: Fungicidal activity against Phakopsora pachyrhizi / soybean / leaf disc preventative (Asian soybean rust); assay type: in vivo; conditions: foliar, 200 ppm in the applied formulation, soybean leaf disks, inoculated one day after application, assessed 12 to 14 days after application, compared to untreated, read-out: disease control
Experimental: Leaf disks or leaf segments of various plant species are cut from plants grown in a greenhouse. The cut leaf disks or segments are placed in multiwell plates (24-well format) onto water agar. The leaf disks are sprayed with a test solution before (preventative) or after (curative) inoculation. Compounds to be tested are prepared as DMSO solutions (max. 10 mg/mL) which are diluted to the appropriate concentration with 0.025% Tween20 just before spraying. The inoculated leaf disks or segments are incubated under defined conditions (temperature, relative humidity, light, etc.) according to the respective test system. A single evaluation of disease level is carried out 3 to 14 days after inoculation, depending on the pathosystem. Percent disease control relative to the untreated check leaf disks or segments is then calculated. Soybean leaf disks are placed on water agar in multiwell plates (24-well format) and sprayed with the formulated test compound diluted in water. One day after application leaf discs are inoculated by spraying a spore suspension on the lower leaf surface. After an incubation period in a climate cabinet of 24-36 hours in darkness at 20° C. and 75% rh leaf disc are kept at 20° C. with 12 hours light/day and 75% rh. The activity of a compound is assessed as percent disease control compared to untreated when an appropriate level of disease damage appears in untreated check leaf disks (12 to 14 days after application). The following compounds at 200 ppm in the applied formulation give at least 80% disease control in this test when compared to untreated control leaf disks under the same conditions, which show extensive disease development.

[1] = test system: Puccinia recondita f. sp. tritici; assay: Fungicidal activity against Puccinia recondita f. sp. tritici / wheat / leaf disc curative (brown rust); assay type: in vivo; conditions: foliar, 200 ppm in the applied formulation, wheat leaf segments cv. Kanzler, applied 1 day after inoculation, assessed 6 to 8 days after application, compared to untreated, read-out: disease control
Experimental: Leaf disks or leaf segments of various plant species are cut from plants grown in a greenhouse. The cut leaf disks or segments are placed in multiwell plates (24-well format) onto water agar. The leaf disks are sprayed with a test solution before (preventative) or after (curative) inoculation. Compounds to be tested are prepared as DMSO solutions (max. 10 mg/mL) which are diluted to the appropriate concentration with 0.025% Tween20 just before spraying. The inoculated leaf disks or segments are incubated under defined conditions (temperature, relative humidity, light, etc.) according to the respective test system. A single evaluation of disease level is carried out 3 to 14 days after inoculation, depending on the pathosystem. Percent disease control relative to the untreated check leaf disks or segments is then calculated. Wheat leaf segments cv. Kanzler are placed on agar in multiwell plates (24-well format). The leaf segments are then inoculated with a spore suspension of the fungus. Plates were stored in darkness at 19° C. and 75% relative humidity. The formulated test compound diluted in water was applied 1 day after inoculation. The leaf segments were incubated at 19° C. and 75% relative humidity under a light regime of 12 hours light/12 hours darkness in a climate cabinet and the activity of a compound was assessed as percent disease control compared to untreated when an appropriate level of disease damage appears in untreated check leaf segments (6 to 8 days after application). The following compounds at 200 ppm in the applied formulation give at least 80% disease control in this test when compared to untreated control leaf disks under the same conditions, which show extensive disease development.

[2] = test system: Puccinia recondita f. sp. tritici; assay: Fungicidal activity against Puccinia recondita f. sp. tritici / wheat / leaf disc preventative (brown rust); assay type: in vivo; conditions: foliar, 200 ppm in the applied formulation, wheat leaf segments cv. Kanzler, inoculated 1 day after application, assessed 7 to 9 days after application, compared to untreated, read-out: disease control
Experimental: Leaf disks or leaf segments of various plant species are cut from plants grown in a greenhouse. The cut leaf disks or segments are placed in multiwell plates (24-well format) onto water agar. The leaf disks are sprayed with a test solution before (preventative) or after (curative) inoculation. Compounds to be tested are prepared as DMSO solutions (max. 10 mg/mL) which are diluted to the appropriate concentration with 0.025% Tween20 just before spraying. The inoculated leaf disks or segments are incubated under defined conditions (temperature, relative humidity, light, etc.) according to the respective test system. A single evaluation of disease level is carried out 3 to 14 days after inoculation, depending on the pathosystem. Percent disease control relative to the untreated check leaf disks or segments is then calculated. Wheat leaf segments cv. Kanzler were placed on agar in multiwell plates (24-well format) and sprayed with the formulated test compound diluted in water. The leaf disks were inoculated with a spore suspension of the fungus 1 day after application. The inoculated leaf segments were incubated at 19° C. and 75% relative humidity (rh) under a light regime of 12 hours light/12 hours darkness in a climate cabinet and the activity of a compound was assessed as percent disease control compared to untreated when an appropriate level of disease damage appears in untreated check leaf segments (7 to 9 days after application). The following compounds at 200 ppm in the applied formulation give at least 80% disease control in this test when compared to untreated control leaf disks under the same conditions, which show extensive disease development.

[3] = test system: Glomerella lagenarium (Colletotrichum lagenarium); assay: Fungicidal activity against Glomerella lagenarium (Colletotrichum lagenarium) liquid culture / cucumber / preventative (anthracnose); assay type: cell-based; conditions: Colletotrichum orbiculare; 20 ppm in the applied formulation; liquid culture in PDB, 24° C.; 3 to 4 days after application; compared to untreated control; read-out: disease control (inhibition of growth measured photometrically)
Experimental: Mycelia fragments or conidia suspensions of a fungus prepared either freshly from liquid cultures of the fungus or from cryogenic storage, are directly mixed into nutrient broth. DMSO solutions of the test compound (max. 10 mg/mL) are diluted with 0.025% Tween20 by a factor of 50 and 10 μL of this solution is pipetted into a microtiter plate (96-well format). The nutrient broth containing the fungal spores/mycelia fragments is then added to give an end concentration of the tested compound. The test plates are incubated in the dark at 24° C. and 96% relative humidity (rh). The inhibition of fungal growth is determined photometrically after 2 to 7 days, depending on the pathosystem, and percent antifungal activity relative to the untreated check is calculated. Conidia of the fungus from cryogenic storage are directly mixed into nutrient broth (PDB—potato dextrose broth). After placing a (DMSO) solution of test compound into a microtiter plate (96-well format), the nutrient broth containing the fungal spores is added. The test plates are incubated at 24° C. and the inhibition of growth is measured photometrically 3 to 4 days after application. The following compounds at 20 ppm in the applied formulation give at least 80% disease control in this test when compared to untreated control under the same conditions, which show extensive disease development.

NC(=S)c1nccn1Cc1ccc(-c2noc(C(F)(F)F)n2)s1 [Compound 1.12, 1-[[5-[5-(trifluoromethyl)-1,2,4-oxadiazol-3-yl]-2-thienyl]methyl] imidazole-2-carbothioamide]
pest or weed control at 200 ppm (Phakopsora pachyrhizi): ≥ 80%
pest or weed control at 200 ppm [1]: ≥ 80%
pest or weed control at 200 ppm [2]: ≥ 80%
melting point: 170 to 172 °C
inhibition at 20 ppm [3]: ≥ 80%

Source: US20210267204A1, “MICROBIOCIDAL OXADIAZOLE DERIVATIVES” (SYNGENTA CROP PROTECTION AG, priority 2018, published 2021)
